Series [1] has as its system Enterococcus faecalis. The series can be described thus: Antibacterial activity against Mel-5-resistant vancomycin-resistant Enterococcus faecalis 1010 assessed as reduction in bacterial growth measured after 24 hrs by broth microdilution method. It counts as functional. To be noted: Enterococcus faecalis, 1010, 24 h. In general terms: In broth dilution the organism is exposed to a series of concentrations in liquid medium.

The subject of series [2] is Staphylococcus aureus. Kind of series: In vivo antibacterial activity against Staphylococcus aureus ATCC 29213 infected in C57BL/6 mouse assessed as reduction in bacterial burden by measuring log10 CFU/cornea at 0.3% administered topically as two times on day 1, four times on day 2 and two times on day 3 measured at 48 hrs post-final dose by 10 fold serial dilution method (reference value: 6.5 +/- 0.7 log10CFU). It is filed as functional.

The test system of series [3] is Enterococcus faecalis. The series can be described thus: Antibacterial activity against vancomycin-resistant Enterococcus faecalis 1010 assessed as reduction in bacterial growth measured after 24 hrs by broth microdilution method. It counts as functional. The settings on record: Enterococcus faecalis, 1010, 24 h.
For series [4], the system named is Enterococcus faecalis. Kind of series: Ratio of MIC for vancomycin-resistant Enterococcus faecalis 1010 to MIC for Mel-5-resistant vancomycin-resistant Enterococcus faecalis 1010 incubated for 24 hrs by broth microdilution method. It is filed as functional.
Series [5] concerns Staphylococcus aureus. The series can be described thus: Antibacterial activity against methicillin-sensitive Staphylococcus aureus assessed as reduction in bacterial growth incubated for 24 hrs by broth microdilution method. It is filed as functional.
The test system of another series is Acinetobacter baumannii. Kind of series: Antibacterial activity against multidrug-resistant Acinetobacter baumannii assessed as reduction in bacterial growth incubated for 24 hrs by broth microdilution method. It is filed as functional.
In the next series the test system is Enterococcus. Kind of series: Antibacterial activity against vancomycin-resistant Enterococcus assessed as reduction in bacterial growth incubated for 24 hrs by broth microdilution method. It is filed as functional.
Series [6] has as its system Staphylococcus aureus. The series can be described thus: Antibacterial activity against methicillin-resistance Staphylococcus aureus assessed as reduction in bacterial growth incubated for 24 hrs by broth microdilution method. It counts as functional.
The nature of series [7]: Cytotoxicity against HDF cells assessed as cell viability at 250 ug/ml incubated for 24 hrs by MTS assay relative to control. To be noted: human, HDF cells (NHDF, human dermal fibroblasts); read-out: Activity. It counts as cell-based. (Formazan colour is commonly taken as a measure of viable cells.)
The next series relates to Enterobacteriaceae. The series can be described thus: Antibacterial activity against Carbapenem-Resistant Enterobacteriaceae assessed as reduction in bacterial growth incubated for 24 hrs by broth microdilution method. It is filed as functional.
In series [8] the test system is Staphylococcus aureus. Kind of series: Antibacterial activity against Staphylococcus aureus assessed as reduction in bacterial growth incubated for 24 hrs by broth microdilution method. It is filed as functional.
The test system of series [9] is NHDF. Kind of series: Cytotoxicity against HDF cells assessed as reduction in metabolic activity at 500 ug/ml incubated for 24 hrs by MTS assay relative to control. It is filed as ADME, cell-based. Also on record: scale not given: the % may be the effect or the level left. The settings on record: human.
Series [10] can be described thus: Cytotoxicity against HDF cells assessed as cell viability at 125 ug/ml incubated for 24 hrs by MTS assay relative to control. The settings on record: human, HDF cells (NHDF, human dermal fibroblasts); read-out: Activity. It counts as cell-based.
The nature of series [11]: Cytotoxicity against HDF cells assessed as minimum cytotoxic concentration incubated for 24 hrs by Alexa Fluor […] phalloidin-FITC/Hoescht dye staining based fluorescence microscopic analysis. It is filed as cell-based. To be noted: human, HDF cells (NHDF, human dermal fibroblasts).
A further series relates to Candida albicans. The series can be described thus: Antifungal activity against Candida albicans assessed as reduction in fungal growth incubated for 24 hrs by broth microdilution method. It counts as functional.
Series [12] in a line: Cytotoxicity against HDF cells assessed as minimum cytotoxic concentration incubated for 24 hrs by MTS assay. It is filed as cell-based. To be noted: human, HDF cells (NHDF, human dermal fibroblasts).
Another series deals with Pseudomonas aeruginosa. Kind of series: Antibacterial activity against Pseudomonas aeruginosa assessed as reduction in bacterial growth incubated for 24 hrs by broth microdilution method. It counts as functional.
Series [13] deals with Lipid bilayer. The series can be described thus: Induction of pore formation in negatively charged DOPE/DOPG large unilamellar vesicles assessed as calcein release at 0.39 to 50 uM measured for 60 mins by fluorescence based assay.
Series [14] has as its system NHDF. Kind of series: Cytotoxicity against HDF cells at 250 ug/ml incubated for 24 hrs by Alexa Fluor […] phalloidin-FITC/Hoescht dye staining based fluorescence microscopic analysis. It is filed as cell-based. The settings on record: human.
In series [15] the test system is Lipid bilayer. Kind of series: Induction of pore formation in zwitterionic DOPC/cholesterol large unilamellar vesicles assessed as calcein release at 0.39 to 50 uM measured for 60 mins by fluorescence based assay.
In series [16] the test system is Enterococcus faecalis. The series can be described thus: Resistance index, ratio of MIC for vancomycin-resistant Enterococcus faecalis 1010 measured after 14 serial passages by broth microdilution method to MIC for vancomycin-resistant Enterococcus faecalis 1010 incubated for 24 hrs by broth microdilution method. It counts as functional.
Series [17] has as its system Enterococcus faecalis. The series can be described thus: Ratio of MIC for Mel-5-resistant vancomycin-resistant Enterococcus faecalis 1010 to MIC for vancomycin-resistant Enterococcus faecalis 1010 incubated for 24 hrs by broth microdilution method. It is filed as functional.

Converted amounts (≈) assume the structure as drawn.

For `COc1c(N2CCNC(C)C2)c(F)cc2c(=O)c(C(=O)O)cn(C3CC3)c12` (stereo not given) [GATIFLOXACIN], the MIC in the series with Enterococcus faecalis [1] stood at 8 µg/mL (≈ 21.3 µM); with Enterococcus faecalis [3], 4 µg/mL (≈ 10.7 µM). Further, the Activity with Staphylococcus aureus [2] is on record as 2.5 log10CFU. Besides, the Ratio in the series on Enterococcus faecalis [4] came out at 8.

As to `CC[C@H](C)[C@H](NC(=O)CN)C(=O)NCC(=O)N[C@@H](C)C(=O)N[C@H](C(=O)N[C@@H](CC(C)C)C(=O)NCCC[C@@H](CN)C(=O)N[C@H](C(=O)N[C@@H](CC(C)C)C(=O)N[C@H](C(=O)N[C@H](C(=O)NCC(=O)N[C@@H](CC(C)C)C(=O)N1CCC[C@H]1C(=O)N[C@@H](C)C(=O)N[C@@H](CC(C)C)C(=O)N[C@H](C(=O)N[C@@H](CO)C(=O)N[C@@H](Cc1c[nH]c2ccccc12)C(=O)N[C@H](C(=O)N[C@@H](CCCCN)C(=O)N[C@@H](CCCNC(=N)N)C(=O)N[C@@H](CCCCN)C(=O)N[C@@H](CCCNC(=N)N)C(=O)N[C@@H](CCC(N)=O)C(=O)N[C@@H](CCC(N)=O)C(N)=O)[C@@H](C)CC)[C@@H](C)CC)[C@@H](C)O)[C@@H](C)O)C(C)C)C(C)C`, the MIC fell in the range of 4 to 32 µg/mL (≈ 1.41 to 11.2 µM) in the series with Staphylococcus aureus [5]; 2 to 4 µg/mL (≈ 0.703 to 1.41 µM) in the series with Acinetobacter baumannii; 4 to 32 µg/mL (≈ 1.41 to 11.2 µM) in the series on Enterococcus; 4 to 64 µg/mL (≈ 1.41 to 22.5 µM) in the series on Enterobacteriaceae; 8 to 32 µg/mL (≈ 2.81 to 11.2 µM) in the series on Staphylococcus aureus [8]; 4 to 8 µg/mL (≈ 1.41 to 2.81 µM) in the series on Candida albicans. Moreover, the MIC with Pseudomonas aeruginosa fell in the range of 8 to 64 µg/mL (≈ 2.81 to 22.5 µM). Also, the MIC50 in the series with Staphylococcus aureus [5] is 16 µg/mL (≈ 5.62 µM); with Acinetobacter baumannii, 2 µg/mL (≈ 0.703 µM); in the series on Enterococcus it was 8 µg/mL (≈ 2.81 µM); with Staphylococcus aureus [6] it was 16 µg/mL (≈ 5.62 µM); with Enterobacteriaceae, 8 µg/mL (≈ 2.81 µM); in the series with Candida albicans it was 4 µg/mL (≈ 1.41 µM). For the same compound, the MIC50 in the series on Pseudomonas aeruginosa worked out at 16 µg/mL (≈ 5.62 µM). In addition, the viability at 24 h, 250 ug/ml in [7] was determined as 32.4%. The Activity in the series with NHDF [9] was 100%; in the series with Lipid bilayer [13] it was 41.8%; with NHDF [14], “Toxic”; in the series with Lipid bilayer [15], 7.8%. For the same compound, in [10], the viability at 24 h, 125 ug/ml amounted to 112%. Also, the MCC at 24 h in [11] and in series [12] was over 125 µg/mL each time.

On to `CCCCCCCCCC(=O)N[C@@H](Cc1c[nH]c2ccccc12)C(=O)N[C@H](CC(N)=O)C(=O)N[C@@H](CC(=O)O)C(=O)N[C@@H]1C(=O)NCC(=O)N[C@@H](CCCN)C(=O)N[C@@H](CC(=O)O)C(=O)N[C@H](C)C(=O)N[C@@H](CC(=O)O)C(=O)NCC(=O)N[C@H](CO)C(=O)N[C@@H]([C@@H](C)CC(=O)O)C(=O)N[C@@H](CC(=O)c2ccccc2N)C(=O)O[C@@H]1C`, for which the Ratio with Enterococcus faecalis [16] is on record as 4; with Enterococcus faecalis [17], over 128. Besides, the MIC is over 512 µg/mL in the series with Enterococcus faecalis [1] and 64 µg/mL (≈ 39.5 µM) in the series on Enterococcus faecalis [3].

One may read the MIC as the lowest concentration found to suppress growth. One may read the MIC50 as an inhibitory concentration at the 50% level, which refers to growth in some studies and to a panel of isolates in others.

The record behind these values is ChEMBL document CHEMBL4402583, “Rational Substitution of ε-Lysine for α-Lysine Enhances the Cell and Membrane Selectivity of Pore-Forming Melittin” (J Med Chem, 2020).
